Test systems include SN12C; ACHN; M14; OVCAR-8; SW-620; RXF 393; NCI-H522; Malme-3M; SF-295; COLO 205; KM12; BT-549; LOX IMVI; HL-60; SK-OV-3; TK-10; HCT-15; OVCAR-3; SF-539; A498.
What all share (test): NCI tumour cell line growth inhibition, 48 h

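Test compounds were applied to cells in 96-well plates for 48 hours at 5 doses. GI50 = concentration required for 50% inhibition of growth.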 The source made the active and inactive calls. Cut-off read from the data, not from the text of the source: active = GI50 up to about 1.1 µM and inactive = higher. Bounds are passed on as bounds.

On to `C[C@]12CC[C@H]3[C@@H](CCC4=C/C(=N/OCCN5CCCCC5)CC[C@@]43C)[C@@H]1CC[C@@H]2O`, for which the GI50 in the assay on SN12C was 17.4 µM (inactive); in the assay with ACHN it was 20.7 µM (inactive); in the assay on M14 it was 8.02 µM (inactive); with OVCAR-8 it was 24.1 µM (inactive); in the assay with SW-620 it was 13.9 µM (inactive); in the assay with RXF 393, 11.8 µM (inactive). Further, the GI50 with NCI-H522 is 12.2 µM (inactive); with Malme-3M it was 15 µM (inactive); with SF-295, 13.8 µM (inactive); in the assay on COLO 205, 16.1 µM (inactive); with KM12 it was 10.2 µM (inactive); with BT-549 it was 15.4 µM (inactive). Also, the GI50 in the assay with LOX IMVI is 11 µM (inactive); in the assay with HL-60, 2.99 µM (inactive); in the assay with SK-OV-3, 15.2 µM (inactive); in the assay on TK-10 it was 14.3 µM (inactive); in the assay with HCT-15 it was 8.04 µM; with OVCAR-3, 16.3 µM (inactive).
Regarding `Cc1cc2c(c3oc(C4(C)OC4C4OC4C)cc(=O)c13)C(=O)c1c(O)c(C3CC(C)(N(C)C)C(O)C(C)O3)cc(C3CC(N(C)C)C(O)C(C)O3)c1C2=O` (centres undefined), the GI50 in the assay with SN12C was 0.000136 µM (active); in the assay with ACHN, 4.4e-05 µM (active); in the assay on M14, 8.26e-05 µM (active); with OVCAR-8 it was 0.0025 µM (active); in the assay with SW-620, 0.0025 µM (active); with RXF 393, 0.000104 µM (active). In addition, the GI50 with NCI-H522 was 0.00275 µM (active); in the assay on SF-539, 0.000531 µM (active); in the assay on SF-295, 4.68e-05 µM (active); in the assay with COLO 205 it was 9.53e-05 µM (active); in the assay with BT-549, 0.00011 µM (active); in the assay on HL-60, 0.0025 µM (active). For the same molecule, the GI50 in the assay with SK-OV-3 was 0.000215 µM (active); in the assay with TK-10 it was 0.000197 µM (active); with OVCAR-3 it was 0.000191 µM (active).
Turning to `CCOP(=O)(OCC)C(C(=O)OC)C(=O)C(=O)Nc1cccc([N+](=O)[O-])c1` (centres undefined), the GI50 with SN12C, in the assay with ACHN, in the assay with M14, with OVCAR-8, in the assay on SW-620 and in the assay with RXF 393 was > 100 µM (inactive) in each case. Moreover, the GI50 in the assay with NCI-H522, with Malme-3M, with SF-539, in the assay with SF-295, in the assay with COLO 205 and with KM12 was > 100 µM (inactive) throughout. Further, the GI50 with LOX IMVI is > 100 µM (inactive); with HL-60, > 100 µM (inactive); in the assay on A498 it was > 100 µM (inactive); with SK-OV-3 it was > 100 µM (inactive); with TK-10 it was > 100 µM (inactive); in the assay with HCT-15, above 100 µM. In the assay with OVCAR-3, the GI50 was > 100 µM (inactive).
On to `N=C(N)NS(=O)(=O)c1ccc(NC(=O)c2cccc3c(NNc4ccc(S(=O)(=O)N=C(N)N)cc4)c4ccccc4nc23)cc1`, for which the GI50 with SN12C was > 100 µM (inactive); in the assay on ACHN, 75 µM (inactive); in the assay on M14, > 100 µM (inactive); in the assay on OVCAR-8, 53.5 µM (inactive); in the assay with SW-620 it was 48.9 µM (inactive); with RXF 393, > 100 µM (inactive). In addition, the GI50 in the assay on NCI-H522 is 25.6 µM (inactive); with Malme-3M it was 38.2 µM (inactive); in the assay with SF-539, > 100 µM (inactive); in the assay on SF-295, > 100 µM (inactive); with COLO 205, 92.7 µM (inactive); in the assay on KM12 it was > 100 µM (inactive). The GI50 in the assay with BT-549 is 33.3 µM (inactive); with LOX IMVI, 34.8 µM (inactive); in the assay with HL-60, 35.5 µM (inactive); in the assay on SK-OV-3, > 100 µM (inactive); in the assay with TK-10, > 100 µM (inactive); in the assay with HCT-15 it was 37.8 µM. Also, the GI50 in the assay with OVCAR-3 is 38.2 µM (inactive).
Turning to `O=C(/C=C(\Nc1ccccc1O)c1ccc(Br)cc1)C(Cl)(Cl)Cl`, the GI50 in the assay on SN12C was 7.67 µM (inactive); with ACHN it was 2.55 µM (inactive); with M14, 15.5 µM (inactive); in the assay on OVCAR-8, 12.6 µM (inactive); in the assay on SW-620 it was 3.06 µM (inactive); in the assay with RXF 393, 5.51 µM (inactive). The GI50 with NCI-H522 is 14.9 µM (inactive); with Malme-3M, 15.2 µM (inactive); with SF-539, 12.7 µM (inactive); in the assay with SF-295, 6.12 µM (inactive); in the assay with COLO 205, 6.95 µM (inactive); in the assay on KM12, 2.75 µM (inactive). The GI50 with BT-549 is 15 µM (inactive); with LOX IMVI, 17.9 µM (inactive); in the assay on HL-60, 2.36 µM (inactive); with SK-OV-3 it was 1.07 µM (active); with TK-10, 6.95 µM (inactive); in the assay on HCT-15 it was 12.2 µM. In the assay with OVCAR-3, the GI50 was 4.34 µM (inactive).
With `CC1=C(C(=O)NCC(C)O)CC(C(=O)NCC(C)O)=C(C)N1` (centres undefined), the GI50 in the assay with SN12C, in the assay on ACHN, in the assay on M14, with OVCAR-8, in the assay on SW-620 and with RXF 393 was > 100 µM (inactive) throughout. Also, the GI50 with NCI-H522, in the assay on SF-539, in the assay on SF-295, in the assay on COLO 205, in the assay with KM12 and in the assay on BT-549 was > 100 µM (inactive) each time. Further, the GI50 in the assay on LOX IMVI is > 100 µM (inactive); in the assay on HL-60, > 100 µM (inactive); in the assay on SK-OV-3, > 100 µM (inactive); with TK-10 it was > 100 µM (inactive); in the assay with HCT-15 it was above 100 µM; with OVCAR-3, > 100 µM (inactive).
In the case of `Cc1ccc(S(=O)OC2C3CC4CC(C3)CC2C4)cc1` (centres undefined), the GI50 in the assay with SN12C, in the assay on ACHN, with M14, in the assay on OVCAR-8, in the assay with SW-620 and with RXF 393 was > 100 µM (inactive) in each case. Further, the GI50 with NCI-H522, in the assay with Malme-3M, in the assay on SF-539, in the assay with SF-295, with COLO 205 and with KM12 was > 100 µM (inactive) each time. For the same molecule, the GI50 with LOX IMVI is > 100 µM (inactive); with HL-60 it was > 100 µM (inactive); in the assay with A498, > 100 µM (inactive); with SK-OV-3, > 100 µM (inactive); in the assay with TK-10 it was > 100 µM (inactive); with HCT-15, above 100 µM. In addition, the GI50 in the assay on OVCAR-3 is > 100 µM (inactive).
For `c1ccc(/N=C(/Nc2ccccc2)N2CCCCC2)cc1`, the GI50 with SN12C is > 100 µM (inactive); with ACHN, > 100 µM (inactive); in the assay on M14 it was 22.3 µM (inactive); in the assay on OVCAR-8 it was > 100 µM (inactive); in the assay with SW-620, > 100 µM (inactive); with NCI-H522 it was 67.3 µM (inactive). Also, the GI50 in the assay on Malme-3M is 50.2 µM (inactive); in the assay on SF-295, 54.7 µM (inactive); with COLO 205, 59 µM (inactive); in the assay with KM12 it was 72.1 µM (inactive); with BT-549 it was > 100 µM (inactive); in the assay on LOX IMVI, 40.3 µM (inactive). Further, the GI50 with HL-60 was 24.7 µM (inactive); in the assay with SK-OV-3 it was 74.1 µM (inactive); with TK-10, > 100 µM (inactive); in the assay on HCT-15, above 100 µM; with OVCAR-3, > 100 µM (inactive).
As for `C=C1C(=O)OC2CC3(C)C=CC(=O)C(=C)C3CC12` (centres undefined), the GI50 in the assay with SN12C is 1.69 µM (inactive); in the assay on ACHN it was 1.72 µM (inactive); in the assay on M14, 1.46 µM (inactive); in the assay with OVCAR-8, 1.55 µM (inactive); with SW-620, 1.04 µM (active); with RXF 393, 2.03 µM (inactive). For the same molecule, the GI50 with NCI-H522 is 0.47 µM (active); in the assay on Malme-3M, 1.99 µM (inactive); in the assay on SF-539, 1.53 µM (inactive); with SF-295, 13.9 µM (inactive); with COLO 205, 1.63 µM (inactive); with KM12, 2.08 µM (inactive). Also, the GI50 in the assay on LOX IMVI is 0.516 µM (active); with HL-60 it was 0.769 µM (active); in the assay with A498, 7.46 µM (inactive); with SK-OV-3, 20.8 µM (inactive); with TK-10 it was 2.15 µM (inactive); in the assay with HCT-15, 1.71 µM. Besides, the GI50 in the assay with OVCAR-3 was 2.32 µM (inactive).
Regarding `O=[N+]([O-])c1ccc(Cl)cc1N/N=C/c1cccs1`, the GI50 in the assay on SN12C, in the assay on ACHN, with M14, in the assay on OVCAR-8, in the assay on SW-620 and in the assay on RXF 393 was > 100 µM (inactive) throughout. Besides, the GI50 in the assay on NCI-H522, in the assay with SF-539, in the assay on SF-295, in the assay with COLO 205, in the assay on KM12 and with BT-549 was > 100 µM (inactive) in each case. Also, the GI50 in the assay on HL-60 was > 100 µM (inactive); with SK-OV-3, > 100 µM (inactive); with TK-10, > 100 µM (inactive); in the assay on HCT-15, above 100 µM; with OVCAR-3 it was > 100 µM (inactive).
As for `COC1=CCC2=C(CCN(C(=O)C3CCC3)C2Cc2ccc(OC)c(O)c2)C1` (centres undefined), the GI50 was 19.5 µM (inactive) with SN12C; 35.4 µM (inactive) with ACHN; 16.9 µM (inactive) in the assay on M14; 37.2 µM (inactive) with OVCAR-8; 12.8 µM (inactive) in the assay on SW-620; 4.68 µM (inactive) in the assay with RXF 393. For the same molecule, the GI50 in the assay on NCI-H522 was 16.6 µM (inactive); in the assay on Malme-3M it was 26.6 µM (inactive); with SF-539 it was 30.5 µM (inactive); in the assay with SF-295, 15.9 µM (inactive); with COLO 205, 16 µM (inactive); with KM12, 6.18 µM (inactive). The GI50 was 36.6 µM (inactive) with LOX IMVI; 4.3 µM (inactive) in the assay with HL-60; 19.4 µM (inactive) in the assay with A498; 20.5 µM (inactive) in the assay on SK-OV-3; 17.5 µM (inactive) in the assay on TK-10; 4.85 µM with HCT-15. The GI50 with OVCAR-3 is 5.93 µM (inactive).

The record behind these values is ChEMBL document CHEMBL1201862, “PubChem BioAssay data set” (2004).
